Measurements taken from PubChem BioAssay AID330 (DTP/NCI, 2004).
Values joined by “and” are separate entries in the source; they are usually repeats but may differ in a detail not shown here. Identical values can stand only once. Toxic doses and inconclusive results are not listed.

Tested on: P388 leukemia ip, CD2F1 mice, survival T/C
Assay: NCI In Vivo Anticancer Drug Screen. Data for tumor model P388 Leukemia (intraperitoneal) in CD2F1 (CDF1) mice
Details: endpoint: median survival time, higher = longer survival
Method in brief: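 Mice carrying the transplanted tumor received test compound or vehicle. Survival was recorded in each group, and the value is the treated-group measurement divided by that of the vehicle-treated control group.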

[1] = dose: 50.0 mg/kg/injection, schedule: Q01DX009 (ip), vehicle: Klucel (hydroxypropylcellulose) (HPC)
[2] = dose: 100.0 mg/kg/injection, schedule: Q01DX009 (ip), vehicle: Klucel (hydroxypropylcellulose) (HPC)
[3] = dose: 200.0 mg/kg/injection, schedule: Q01DX009 (ip), vehicle: Klucel (hydroxypropylcellulose) (HPC)
[4] = dose: 50.0 mg/kg/injection, schedule: Q01DX009 (ip), vehicle: saline
[5] = dose: 100.0 mg/kg/injection, schedule: Q01DX009 (ip), vehicle: saline
[6] = dose: 50.0 mg/kg/injection, schedule: Q01DX005 (ip), vehicle: saline
[7] = dose: 100.0 mg/kg/injection, schedule: Q01DX005 (ip), vehicle: saline
[8] = dose: 200.0 mg/kg/injection, schedule: Q01DX005 (ip), vehicle: saline
[9] = dose: 60.0 mg/kg/injection, schedule: Q01DX005 (ip), vehicle: saline with Tween-80
[10] = dose: 120.0 mg/kg/injection, schedule: Q01DX005 (ip), vehicle: saline with Tween-80
[11] = dose: 240.0 mg/kg/injection, schedule: Q01DX005 (ip), vehicle: saline with Tween-80

CC1C(=O)CCC2(C)CCC3C(OC(=O)C3(C)[Se]c3ccccc3)C12 (stereo not given)
T/C (dose: 100.0 mg/kg/injection, schedule: Q04DX002 (ip), vehicle: saline with Tween-80): 97 % of control | T/C (dose: 200.0 mg/kg/injection, schedule: Q04DX002 (ip), vehicle: saline with Tween-80): 98 % of control

CN(C)c1ccc(/C=C/c2ccc3c(c2)OCO3)cc1
T/C [1]: 98 % of control | T/C [2]: 95 % of control | T/C [3]: 98 % of control

Nc1nc2ccccc2n1/N=C/c1ccccc1[N+](=O)[O-]
T/C (dose: 100.0 mg/kg/injection, schedule: Q01DX001 (ip), vehicle: Klucel (hydroxypropylcellulose) (HPC)): 90 % of control | T/C (dose: 200.0 mg/kg/injection, schedule: Q01DX001 (ip), vehicle: Klucel (hydroxypropylcellulose) (HPC)): 100 % of control | T/C (dose: 400.0 mg/kg/injection, schedule: Q01DX001 (ip), vehicle: Klucel (hydroxypropylcellulose) (HPC)): 98 % of control

O=C(/C=C/c1ccco1)C1C(=O)CCC1=O
T/C (dose: 50.0 mg/kg/injection, schedule: Q01DX005 (ip), vehicle: Klucel + Tween-80): 98 % of control | T/C (dose: 100.0 mg/kg/injection, schedule: Q01DX005 (ip), vehicle: Klucel + Tween-80): 104 % of control

O=C(O)CN(CCN(CC(=O)O)CC(=O)O)CC(=O)O.[O]=[Mo]1[O][Mo](=[O])[O]1
T/C [4]: 89 % of control | T/C [5]: 90 % of control

CC1CCCC(C)N1NC(=O)C(C)(C)C (stereo not given)
T/C [6]: 99 % of control | T/C [7]: 115 % of control | T/C [8]: 101 % of control

O=C(NCCO)Nc1ccccc1F
T/C (dose: 100.0 mg/kg/injection, schedule: Q04DX003 (ip), vehicle: saline): 100 % of control | T/C (dose: 200.0 mg/kg/injection, schedule: Q04DX003 (ip), vehicle: saline): 95 % of control | T/C (dose: 400.0 mg/kg/injection, schedule: Q04DX003 (ip), vehicle: saline): 104 % of control

COc1ccc(C2=NNC(=O)C3NC(=O)C(C#N)=C(C(=O)NN)C23c2ccc(OC)cc2)cc1 (stereo not given)
T/C [9]: 99 % of control | T/C [10]: 91 % of control | T/C [11]: 89 % of control

O=C1CSC(c2cc(F)ccc2F)N1c1nncs1 (stereo not given)
T/C [9]: 107 % of control | T/C [10]: 109 % of control | T/C [11]: 104 % of control

Nc1nnc(N)n1-n1c(N)nnc1N
T/C (dose: 15.0 mg/kg/injection, schedule: Q01DX005 (ip), vehicle: saline): 104 % of control | T/C (dose: 30.0 mg/kg/injection, schedule: Q01DX005 (ip), vehicle: saline): 99 % of control | T/C (dose: 60.0 mg/kg/injection, schedule: Q01DX005 (ip), vehicle: saline): 100 % of control and 104 % of control

O=C1CSC(c2ccc(Cl)c([N+](=O)[O-])c2)N1c1nncs1 (stereo not given)
T/C (dose: 60.0 mg/kg/injection, schedule: Q01DX005 (ip), vehicle: Klucel (hydroxypropylcellulose) (HPC)): 99 % of control | T/C (dose: 120.0 mg/kg/injection, schedule: Q01DX005 (ip), vehicle: Klucel (hydroxypropylcellulose) (HPC)): 100 % of control | T/C (dose: 240.0 mg/kg/injection, schedule: Q01DX005 (ip), vehicle: Klucel (hydroxypropylcellulose) (HPC)): 97 % of control

C=C(Br)C(=O)N1CCCC1C(=O)NC (stereo not given)
T/C (dose: 25.0 mg/kg/injection, schedule: Q01DX009 (ip), vehicle: saline): 110 % of control | T/C [4]: 91 % of control | T/C [5]: 98 % of control

O/N=C\c1ccccc1P(c1ccccc1)c1ccccc1/C=N\O
T/C (dose: 50.0 mg/kg/injection, schedule: Q01DX005 (ip), vehicle: saline with Tween-80): 93 % of control | T/C (dose: 100.0 mg/kg/injection, schedule: Q01DX005 (ip), vehicle: saline with Tween-80): 92 % of control | T/C (dose: 200.0 mg/kg/injection, schedule: Q01DX005 (ip), vehicle: saline with Tween-80): 90 % of control

CCCCCCCCCCCC(=O)N(C)CCOC(=O)C(C)(C)C
T/C [4]: 106 % of control | T/C [5]: 98 % of control | T/C (dose: 200.0 mg/kg/injection, schedule: Q01DX009 (ip), vehicle: saline): 116 % of control

CC1(C)CN(Cc2ccccc2)C2OC1N(Cc1ccccc1)CC2(C)C
T/C [1]: 102 % of control | T/C [2]: 99 % of control | T/C [3]: 96 % of control

N#CC(C#N)=C(O)/C(=C/c1ccc(Cl)c(Cl)c1)NC(=O)c1ccccc1
T/C [6]: 88 % of control | T/C [7]: 88 % of control | T/C [8]: 104 % of control
